≈ marks a conversion by molar mass, not a printed value. Where “and” joins values, the source holds several entries; their conditions need not be identical. Identical values can stand only once. Like-named read-outs stand apart in the source and are kept apart here. Numbered stars: 1 amine (or outer) side, 2 acyl side, 3 side chain; on linkers, the order of the positions; unused ones are H or OH. Bridge positions count the residues as written; N and C are the ends. Square brackets hold non-standard residues; d marks the D form. Ends that are not written are not given here. Peptide text beside a SMILES is read from it. * marks the point of attachment. ξ: configuration not given here. X2 = CCCC1CC(C(=O)[*:2])N([*:1])C1; Butanoyl(2-oxo) = CCC(=O)C(=O)*; NMeAhp(2) = CCCCC[CH](NC)C(=O)O; ξPro(4ξ-Me) = CC1CNC(C(=O)O)C1; NMeT = CN[CH](C(=O)O)[CH](C)O; NMeL = CN[CH](CC(C)C)C(=O)O; hLeu = CC(C)CC[CH](N)C(=O)O; NMeV = CN[CH](C(=O)O)C(C)C
Experiments:
[1] = system: M. tuberculosis (Mtb) strain H37Ra; assay: microbe, parasite or virus in culture; format: cell-based; conditions: Mycobacterium tuberculosis, read-out: MIC Mtb H37Ra
[2] = system: M. tuberculosis (Mtb) strain H37Rv; assay: microbe, parasite or virus in culture; format: cell-based, Mycobacterium tuberculosis; conditions: Mycobacterium tuberculosis, H37RV
[3] = system: M. smegmatis (Msmeg) strain mc^2155; assay: microbe, parasite or virus in culture; format: cell-based; conditions: Mycolicibacterium smegmatis, MC^2155, read-out: MIC M. smegmatis mc^2155
[4] = system: M. smegmatis mc^2155 GM^R; assay: microbe, parasite or virus in culture; format: cell-based; conditions: Mycolicibacterium smegmatis, MC^2155, read-out: MIC M. smegmatis mc^2155 GM^R
[5] = system: M. marinum (Mm) strain M (ATCC BAA-535); assay: microbe, parasite or virus in culture; format: cell-based; conditions: Mycobacterium marinum, ATCCBAA535, read-out: MIC M. marinum strain M
CHO-K1 cells = assay: cells; format: cell-based, Chinese hamster (Cricetulus griseus); conditions: Cricetulus griseus, CHO-K1, 120 h, read-out: IC50 CHO-K1
[6] = target: M. smegmatis DnaN (msDnaN) (Mycolicibacterium smegmatis, UniProt A0QND6); assay: biochemical; format: binding; conditions: for Response (Average): MST source data, runs #1-#3, listed as MP B
S. aureus Newman = assay: microbe, parasite or virus in culture; format: cell-based; conditions: Staphylococcus aureus, read-out: MIC S. aureus Newman
B. subtilis DSM 10 = assay: microbe, parasite or virus in culture; format: cell-based; conditions: Bacillus subtilis, DSM10, read-out: MIC B. subtilis DSM 10
E. coli BW25113 = assay: microbe, parasite or virus in culture; format: cell-based; conditions: Escherichia coli, BW25113, read-out: MIC E. coli BW25113
C. freundii DSM 30039 = assay: microbe, parasite or virus in culture; format: cell-based; conditions: Citrobacter freundii, DSM30039, read-out: MIC C. freundii DSM 30039
A. baumannii DSM 30008 = assay: microbe, parasite or virus in culture; format: cell-based; conditions: Acinetobacter baumannii, DSM30008, read-out: MIC A. baumannii DSM 30008
[7] = target: T1, M. smegmatis DnaN (DNA polymerase III sliding clamp) (M. smegmatis mc^2155, UniProt A0QND6 1-397, labeled using Monolith Series Protein Labeling Kit BLUE-NHS); assay: MST; msDnaN labeled (BLUE-NHS) at 50 nM; compounds titrated in 16 serial dilution steps, triplicates; 20 mM Tris, 150 mM NaCl, 0.05% Tween-20; Monolith NT-115; conditions: both partners purified
T1 construct: also called msDnaN; DnaN from M. smegmatis mc^2155
T1 sequence (looked up): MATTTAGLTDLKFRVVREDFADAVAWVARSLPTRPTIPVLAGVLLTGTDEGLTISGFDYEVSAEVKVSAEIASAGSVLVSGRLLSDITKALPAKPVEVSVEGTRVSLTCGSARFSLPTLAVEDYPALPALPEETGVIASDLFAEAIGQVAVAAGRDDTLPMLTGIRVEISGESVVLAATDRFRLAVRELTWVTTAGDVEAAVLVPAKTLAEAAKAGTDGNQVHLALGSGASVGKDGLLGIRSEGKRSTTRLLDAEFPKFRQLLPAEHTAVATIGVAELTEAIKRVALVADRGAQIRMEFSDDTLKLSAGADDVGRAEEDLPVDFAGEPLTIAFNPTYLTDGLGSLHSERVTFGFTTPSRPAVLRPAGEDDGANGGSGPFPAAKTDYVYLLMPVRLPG

| Molecule | MIC [1] [µg/mL] | MIC ([2]; read-out: MIC Mtb H37Rv) [µg/mL] | MIC [3] [µg/mL] | MIC [4] [µg/mL] | MIC [5] [µg/mL] | IC50 (CHO-K1 cells) [µg/mL] | Kd [6] [nM] | MIC (S. aureus Newman) [µg/mL] | MIC (B. subtilis DSM 10) [µg/mL] | MIC (E. coli BW25113) [µg/mL] | MIC (C. freundii DSM 30039) [µg/mL] | MIC (A. baumannii DSM 30008) [µg/mL] | also measured |
| --- | --- | --- | --- | --- | --- | --- | --- | --- | --- | --- | --- | --- | --- |
| CCC(=O)C(=O)N(C)C(C(=O)N1CC(C)CC1C(=O)N(C)C1C(=O)NC(CC(C)C)C(=O)N2CC(C)CC2C(=O)NC(CCC(C)C)C(=O)N(C)C(C(C)C)C(=O)N2CCCC2C(=O)N(C)C(CC(C)C)C(=O)NCC(=O)OC1C)C(C)C (centres unmarked) [Mycoplanecin B] | 0.1 (≈ 0.0855 µM) | 0.43 (≈ 0.368 µM) | 0.5 (≈ 0.428 µM) | 8 (≈ 6.84 µM) | 2 (≈ 1.71 µM) | > 37 | 24.4 ± 11.9 | > 64 | > 64 | > 64 | > 64 | > 64 | Response (Average) ([6]; Dose 1.22E-08 (unit not given)): 897.348 and 900.943 and 911.516; Response (Average) ([6]; Dose 1.25E-05 (unit not given)): 906.572 and 909.169 and 909.706; Response (Average) ([6]; Dose 1.53E-09 (unit not given)): 896.843 and 900.134 and 899.613; Response (Average) ([6]; Dose 1.56E-06 (unit not given)): 907.358 and 910.005 and 911.362; Response (Average) ([6]; Dose 1.95E-07 (unit not given)): 905.084 and 913.604 and 911.242; Response (Average) ([6]; Dose 2.44E-08 (unit not given)): 897.582 and 904.128 and 903.123; Response (Average) ([6]; Dose 2.50E-05 (unit not given)): 906.786 and 911.734 and 910.009; Response (Average) ([6]; Dose 3.05E-09 (unit not given)): 897.958 and 898.601 and 900.671; Response (Average) ([6]; Dose 3.13E-06 (unit not given)): 907.585 and 910.886 and 909.908; Response (Average) ([6]; Dose 3.91E-07 (unit not given)): 908.074 and 910.248 and 909.115; Response (Average) ([6]; Dose 4.88E-08 (unit not given)): 897.616 and 904.939 and 909.25; Response (Average) ([6]; Dose 5.00E-05 (unit not given)): 906.528 and 909.788 and 910.069; Response (Average) ([6]; Dose 6.10E-09 (unit not given)): 894.937 and 899.128 and 901.665; Response (Average) ([6]; Dose 6.25E-06 (unit not given)): 905.496 and 910.338 and 909.682; Response (Average) ([6]; Dose 7.81E-07 (unit not given)): 907.246 and 909.231 and 910.996; Response (Average) ([6]; Dose 9.77E-08 (unit not given)): 902.534 and 911.539 and 911.215 |
| CCCC1CC(C(=O)N(C)C2C(=O)NC(CC(C)C)C(=O)N3CC(C)CC3C(=O)NC(CCC(C)C)C(=O)N(C)C(C(C)C)C(=O)N3CCCC3C(=O)N(C)C(CC(C)C)C(=O)NCC(=O)OC2C)N(C(=O)C(C(C)C)N(C)C(=O)C(=O)CC)C1 (centres unmarked) [Mycoplanecin D] ({Butanoyl(2-oxo)}-[NMeV][X2][NMeT]L[ξPro(4ξ-Me)][hLeu][NMeV]P[NMeL]G; ester 3-C; configuration not given here) | 0.05 (≈ 0.0418 µM) | 0.17 (≈ 0.142 µM) | 0.25 (≈ 0.209 µM) | 8 (≈ 6.68 µM) | 1 (≈ 0.835 µM) | > 37 | 134 ± 69.3 | > 64 | > 64 | > 64 | > 64 | > 64 | – |
| CCCCCC1C(=O)NCC(=O)OC(C)C(N(C)C(=O)C2CC(CCC)CN2C(=O)C(C(C)C)N(C)C(=O)C(=O)CC)C(=O)NC(CC(C)C)C(=O)N2CC(C)CC2C(=O)NC(CCC(C)C)C(=O)N(C)C(C(C)C)C(=O)N2CCCC2C(=O)N1C (centres unmarked) [Mycoplanecin E] ({Butanoyl(2-oxo)}-[NMeV][X2][NMeT]L[ξPro(4ξ-Me)][hLeu][NMeV]P[NMeAhp(2)]G; ester 3-C; configuration not given here) | 0.03 (≈ 0.0248 µM) | 0.083 (≈ 0.0685 µM) | 0.125 (≈ 0.103 µM) | – | 0.5 (≈ 0.413 µM) | > 37 | 64.4 ± 33.2 | > 64 | > 64 | > 64 | > 64 | > 64 | MIC ([2]; read-out: minimum inhibition concentration against Mycobacterium tuberculosis): 0.083 µg/mL (≈ 0.0685 µM) |
| VPTLPLVPLG (also: macrocycle, 4-methylproline twice, positions not placed) [griselimycin] | – | – | – | – | – | – | – | – | – | – | – | – | Kd [7]: 6.5 nM |

Source: PMC10817943 (Nature Communications, 2024)
